According to ChEMBL document CHEMBL4699528, “Discovery and Optimization of Non-bile Acid FXR Agonists as Preclinical Candidates for the Treatment of Nonalcoholic Steatohepatitis” (J Med Chem, 2020):

Legend:
[1] = in vivo; settings: Sprague-Dawley, rat, plasma, po, 3 mg/kg
[2] = in vivo; settings: Sprague-Dawley, rat, plasma, po, 3 mg/kg; remark: listed apart in the source
[3] = in vivo; settings: Sprague-Dawley, rat, liver, po, 3 mg/kg
[4] = in vivo; settings: Sprague-Dawley, rat, liver, po, 3 mg/kg; remark: listed apart in the source
[5] = in vivo; settings: Sprague-Dawley, rat, po, 3 mg/kg
[6] = in vivo; settings: Sprague-Dawley, rat, po, 3 mg/kg; remark: listed apart in the source
[7] = in vivo; settings: Sprague-Dawley, rat, po, 3 mg/kg; remark: listed apart in the source
[8] = in vivo; settings: Sprague-Dawley, rat, po, 3 mg/kg; remark: listed apart in the source
[9] = in vivo; settings: Sprague-Dawley, rat, iv, 1 mg/kg
[10] = in vivo; settings: Sprague-Dawley, rat, iv, 1 mg/kg; remark: listed apart in the source
[11] = in vivo; settings: Sprague-Dawley, rat, iv, 1 mg/kg; remark: listed apart in the source
[12] = in vivo; settings: Sprague-Dawley, rat, 3 mg/kg
[13] = in vivo; settings: Sprague-Dawley, rat, po, 3 mg/kg; remark: listed apart in the source

## O=C(O)c1cc(F)c2nc(N3C4CCC3CC(F)(COCc3c(-c5ccccc5OC(F)(F)F)noc3C3CC3)C4)sc2c1 (configuration not stated)
[1]
  concentration at 1 h: 1140 ng/mL
[2]
  concentration at 4 h: 165 ng/mL
[3]
  concentration at 1 h: 2340 ng/mL
[4]
  concentration at 4 h: 612 ng/mL
[5]
  Tmax: 22.8 min
[6]
  Cmax: 590 ng/mL
[7]
  half-life: 1220 min
[8]
  AUC(0-t): 1860 ng·h/mL
[9]
  AUC(0-t): 1930 ng·h/mL
[10]
  MRT inf: 102 min
[11]
  clearance: 8.54 mL/min/kg
[12]
  Vd: 0.84 L/kg
[13]
  bioavailability: 32.2%

## CCn1cc(C(=O)O)c2ccc(N3CCC(F)(COCc4c(-c5c(F)cccc5Cl)noc4C4CC4)CC3)cc21
[1]
  concentration at 1 h: 24 ng/mL
[2]
  concentration at 4 h: 49 ng/mL
[3]
  concentration at 1 h: 656 ng/mL
[4]
  concentration at 4 h: 772 ng/mL
[5]
  Tmax: 15 min
[6]
  Cmax: 117 ng/mL
[7]
  half-life: 58.8 min
[8]
  AUC(0-t): 103 ng·h/mL
[9]
  AUC(0-t): 611 ng·h/mL
[10]
  MRT inf: 30.6 min
[11]
  clearance: 26.4 mL/min/kg
[12]
  Vd: 0.81 L/kg
[13]
  bioavailability: 5.64%

## Cn1cc(C(=O)O)c2ccc(N3CCC(OCc4c(-c5c(Cl)cccc5Cl)noc4C4CC4)CC3)cc21 [TERN-101]
[1]
  concentration at 1 h: 19.3 ng/mL
[2]
  concentration at 4 h: 52.1 ng/mL
[3]
  concentration at 1 h: 121 ng/mL
[4]
  concentration at 4 h: 153 ng/mL
[5]
  Tmax: 15 min
[6]
  Cmax: 283 ng/mL
[7]
  half-life: 133 min
[8]
  AUC(0-t): 195 ng·h/mL
[9]
  AUC(0-t): 201 ng·h/mL
[10]
  MRT inf: 21 min
[11]
  clearance: 82.6 mL/min/kg
[12]
  Vd: 1.74 L/kg
[13]
  bioavailability: 32.4%

## O=C(O)c1cc(F)c2nc(N3CCC(F)(COCc4c(-c5c(F)cccc5Cl)noc4C4CC4)CC3)sc2c1
[1]
  concentration at 1 h: 241 ng/mL
[2]
  concentration at 4 h: 94.8 ng/mL
[3]
  concentration at 1 h: 1550 ng/mL
[4]
  concentration at 4 h: 929 ng/mL

## CCn1c(C(=O)O)cc2ccc(N3CCC(F)(COCc4c(-c5c(Cl)cccc5Cl)noc4C4CC4)CC3)cc21
[1]
  concentration at 1 h: 6.3 ng/mL
[2]
  concentration at 4 h: 12.6 ng/mL
[3]
  concentration at 1 h: 72 ng/mL
[4]
  concentration at 4 h: 186 ng/mL
